Data reported in patent US20260138970A1, “MODULATORS OF THE CALCIUM SIGNALING CASCADE” (FONDAZIONE TELETHON ETS, priority 2022, published 2026).

What was measured:
ITPR1 = ITPR1 (Homo sapiens, UniProt Q14643); test: Fluo-4 Ca2+ assay, UTP, HEK293 cells with selective expression of ITPR1 (HEKR1); type: cell-based; parameters: host or cells: HEKR1 (HEK293); conditions: compounds 10 μM; UTP 5 μM; FIG. 2C
Protocol: HEK293 cells totally devoid of ITPR expression (HEK3XKO) or with selective expression of ITPR1 (HEKR1), ITPR2 (HEKR2), or ITPR3 (HEKR3), obtained by selective gene ablation, were purchased from Kerafast (catalog number: EURO30, EURO31, EURO32, EURO33) and cultured in a mixture of Dulbecco's Modified Eagle Medium (DMEM, high glucose version) and Ham's F12 (1:1) and supplemented with 10% fetal bovine serum, 2 mM L-glutamine, 100 U/ml penicillin and 100 μg/ml streptomycin.
Experiments were performed using the microplate reader described for the HS-YFP assay. FRT and HEK293 cells were cultured until confluence in 96-well microplates (3603, Corning). Cells were washed 2 times with PBS (150 μl/wash) and then loaded for 1 h at 37° C. with 5 μM Fluo-4/AM (Thermo Fisher Scientific; catalog number: F23917) in PBS containing 10 mM glucose, 0.5 mM sulfinpyrazone, and 1% fetal bovine serum. After loading, cells were washed 2 times with PBS-glucose-sulfinpyrazone (150 μl/wash) and incubated for 20 min at 37° C. with 60 μl of PBS plus 10 mM glucose and 0.5 mM sulfinpyrazone containing compounds of interest at 10 μM final concentration or vehicle. Each well was assayed individually. Fluo-4 fluorescence (500 nm excitation, 535 nm emission) was detected every 200 ms for 16-40 s. Two seconds after the start of fluorescence recording, the reader automatically injected 165 μl of a modified PBS containing 136 mM KCl instead of NaCl. This solution also contained 10 mM glucose, 0.5 mM sulfinpyrazone, and UTP or SLIGR-NH2 (CAS #171436-38-7) at a final concentration that depended on the specific cell type. For UTP we used: 0.25 μM for FRT; 1 μM for HEKR2; 5 μM for HEK3XKO, HEKR1, and HEKR3. For SLIGR-NH2 we used: 10 μM for HEKR1; 4 μM for HEKR2. These concentrations were chosen to elicit ˜20% of maximal effect based on UTP and SLIGR-NH2 dose-response relationships. […] The Fluo-4 fluorescence increase was quantified using a procedure compiled in Microsoft Excel after background subtraction and normalization for the initial value measured before UTP addition.

TMEM16A = test: Short-circuit current recordings on human cultured bronchial epithelia, UTP-triggered Cl- secretion; type: cell-based; conditions: UTP 0.25 μM; ARN7149 10 μM, ARN11391 20 μM, ARN4550 20 μM; amiloride, paxillin, inh-172 present; FIG. 5A
Protocol: Human bronchial epithelial cells (HBECs) were isolated and cultured as reported in a previous study (21; 40). Briefly, HBECs were cultured in flasks in a home-made serum-free medium (21). After four to five passages, cells were seeded at high density (500,000/cm^2) on Snapwell porous insert (cc3801, Corning Costar). After 24 h from seeding, the basolateral medium was replaced with differentiation medium PneumaCult ALI (Stemcell Technologies), whereas the apical medium was totally removed to obtain the air-liquid interface (ALI) condition. Epithelia were kept under this condition for at least 2-3 weeks to achieve mucociliary differentiation.
Snapwell supports (3801, Corning) carrying FRT and differentiated HBEC epithelia were mounted in a vertical chamber resembling an Ussing system with internal fluid circulation (EM-CSYS-8, Physiologic Instruments, San Diego, CA, USA). For FRT epithelia, the apical and basolateral hemichambers were filled with solutions of different composition. The apical solution (5 ml) contained (in mM): 63 NaCl, 63 sodium gluconate, 0.38 KH2PO4, 2.13 K2HPO4, 2 CaCl2, 1 MgSO4, 20 Na-Hepes (pH 7.3), and 10 glucose. The basolateral solution (5 ml) instead contained (in mM): 126 KCl, 0.38 KH2PO4, 2.13 K2HPO4, 1 CaCl2, 1 MgSO4, 20 Na-Hepes (pH 7.3), and 10 glucose. Both solutions were continuously bubbled with air and the temperature of the solution was kept at 37° C. For HBECs, the same (bicarbonate-buffered) solution was used in both chambers. The composition of this solution was (in mM): 126 NaCl, 0.38 KH2PO4, 2.13 K2HPO4, 1 MgSO4, 1 CaCl2), 24 NaHCO3, and 10 glucose. Both sides were continuously bubbled with a gas mixture containing 5% CO2 and 95% air. […]
Transepithelial voltage was short-circuited with a voltage-clamp (VCC MC8, Physiologic Instruments, San Diego, CA, USA) connected to the apical and basolateral chambers via Ag—AgCl electrodes and agar bridges (2% agar in 1 M KCl). […] The resulting short-circuited current from each channel was recorded on a personal computer with the Acquire & Analize 2.3 software (Physiologic Instruments, San Diego, CA, USA).

ITPR1, sequence (Q14643 whole entry): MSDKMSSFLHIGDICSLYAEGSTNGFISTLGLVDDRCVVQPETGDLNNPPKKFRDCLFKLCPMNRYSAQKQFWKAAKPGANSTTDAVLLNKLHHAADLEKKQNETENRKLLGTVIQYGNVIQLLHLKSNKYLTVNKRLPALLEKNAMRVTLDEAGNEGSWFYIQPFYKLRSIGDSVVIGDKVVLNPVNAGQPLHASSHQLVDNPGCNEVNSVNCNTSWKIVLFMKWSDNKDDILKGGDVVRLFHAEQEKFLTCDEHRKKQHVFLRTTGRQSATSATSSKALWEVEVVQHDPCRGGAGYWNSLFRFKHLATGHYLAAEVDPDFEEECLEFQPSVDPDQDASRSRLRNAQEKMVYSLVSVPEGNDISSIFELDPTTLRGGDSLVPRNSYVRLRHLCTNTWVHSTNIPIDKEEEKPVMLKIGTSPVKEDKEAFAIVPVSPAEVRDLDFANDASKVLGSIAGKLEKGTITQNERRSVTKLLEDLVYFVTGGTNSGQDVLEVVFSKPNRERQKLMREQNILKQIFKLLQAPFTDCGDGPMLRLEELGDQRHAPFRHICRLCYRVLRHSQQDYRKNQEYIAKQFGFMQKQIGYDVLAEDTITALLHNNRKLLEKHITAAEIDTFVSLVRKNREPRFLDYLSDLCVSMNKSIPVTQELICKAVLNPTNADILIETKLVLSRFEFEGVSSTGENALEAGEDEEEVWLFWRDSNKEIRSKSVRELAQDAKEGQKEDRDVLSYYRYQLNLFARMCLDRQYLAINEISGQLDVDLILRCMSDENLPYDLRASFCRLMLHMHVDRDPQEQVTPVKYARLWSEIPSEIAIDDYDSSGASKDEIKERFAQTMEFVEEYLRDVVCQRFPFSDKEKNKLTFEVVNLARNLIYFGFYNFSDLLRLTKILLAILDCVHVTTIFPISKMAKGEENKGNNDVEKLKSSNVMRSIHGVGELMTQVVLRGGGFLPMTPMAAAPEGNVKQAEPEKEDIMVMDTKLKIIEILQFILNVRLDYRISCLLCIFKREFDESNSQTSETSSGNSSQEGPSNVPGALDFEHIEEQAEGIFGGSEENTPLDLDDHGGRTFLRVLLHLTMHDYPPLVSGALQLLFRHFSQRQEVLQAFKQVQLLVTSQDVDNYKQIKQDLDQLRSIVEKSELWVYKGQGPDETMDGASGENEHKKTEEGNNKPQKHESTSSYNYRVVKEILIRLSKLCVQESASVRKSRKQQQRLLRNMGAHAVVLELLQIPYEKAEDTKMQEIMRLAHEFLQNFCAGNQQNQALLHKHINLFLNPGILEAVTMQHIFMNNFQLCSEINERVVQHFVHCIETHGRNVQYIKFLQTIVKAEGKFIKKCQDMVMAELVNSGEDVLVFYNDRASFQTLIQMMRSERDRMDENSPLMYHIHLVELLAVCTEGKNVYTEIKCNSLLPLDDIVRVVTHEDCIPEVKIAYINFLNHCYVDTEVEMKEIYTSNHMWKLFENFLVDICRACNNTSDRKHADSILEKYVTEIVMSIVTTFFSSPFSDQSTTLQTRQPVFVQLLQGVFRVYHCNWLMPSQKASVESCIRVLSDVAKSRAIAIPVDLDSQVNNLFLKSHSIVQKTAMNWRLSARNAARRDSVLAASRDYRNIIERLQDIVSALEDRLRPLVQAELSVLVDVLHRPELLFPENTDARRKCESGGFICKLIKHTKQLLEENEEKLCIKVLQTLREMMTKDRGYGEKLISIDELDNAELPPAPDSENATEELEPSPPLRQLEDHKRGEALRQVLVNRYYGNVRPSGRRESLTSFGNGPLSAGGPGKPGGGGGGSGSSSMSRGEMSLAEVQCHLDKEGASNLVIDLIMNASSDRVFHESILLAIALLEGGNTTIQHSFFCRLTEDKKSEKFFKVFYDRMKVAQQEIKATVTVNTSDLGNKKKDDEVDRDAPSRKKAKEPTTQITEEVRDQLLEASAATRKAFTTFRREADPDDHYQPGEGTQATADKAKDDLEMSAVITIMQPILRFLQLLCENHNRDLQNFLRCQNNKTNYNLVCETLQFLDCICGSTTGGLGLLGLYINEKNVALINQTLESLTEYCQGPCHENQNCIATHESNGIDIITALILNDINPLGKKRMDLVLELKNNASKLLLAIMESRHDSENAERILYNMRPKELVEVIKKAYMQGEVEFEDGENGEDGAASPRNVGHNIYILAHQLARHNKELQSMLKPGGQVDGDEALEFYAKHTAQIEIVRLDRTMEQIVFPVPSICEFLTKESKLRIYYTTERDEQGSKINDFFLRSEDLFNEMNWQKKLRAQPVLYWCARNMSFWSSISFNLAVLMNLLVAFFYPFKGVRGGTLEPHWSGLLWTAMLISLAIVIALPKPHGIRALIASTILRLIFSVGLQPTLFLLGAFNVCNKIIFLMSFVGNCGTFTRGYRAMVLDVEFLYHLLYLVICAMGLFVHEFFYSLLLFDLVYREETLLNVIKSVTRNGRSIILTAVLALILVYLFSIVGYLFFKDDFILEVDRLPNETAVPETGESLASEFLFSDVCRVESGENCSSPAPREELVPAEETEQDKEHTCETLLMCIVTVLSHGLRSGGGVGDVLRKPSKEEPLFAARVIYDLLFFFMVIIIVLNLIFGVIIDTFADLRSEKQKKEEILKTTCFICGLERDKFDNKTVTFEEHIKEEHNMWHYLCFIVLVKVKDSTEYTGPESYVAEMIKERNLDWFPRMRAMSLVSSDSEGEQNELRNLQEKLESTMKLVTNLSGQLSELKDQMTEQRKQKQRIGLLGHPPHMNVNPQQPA

## CCc1cc(-c2cc(NCCCOc3ccccc3C)nc(N)n2)n(C)n1 [ARN7149, 6-(3-Ethyl-1-methyl-1H-pyrazol-5-yl)-N^4-(3-(o-tolyloxy)propyl)pyrimidine-2,4-diamine]
ITPR1
  potentiation of UTP-elicited Ca2+ increase, ITPR1-only cells: always effective
TMEM16A
  transepithelial Cl- current elicited by apical UTP: significantly enhanced

## CCn1nc2c(c1C(=O)Nc1ccccc1OCC1CCCCO1)CCCC2 (stereo not drawn) [ARN11391, 2-Ethyl-N-[2-(tetrahydropyran-2-ylmethoxy)phenyl]-4,5,6,7-tetrahydroindazole-3-carboxamide]
ITPR1
  potentiation of UTP-elicited Ca2+ increase, ITPR1-only cells: effective
TMEM16A
  transepithelial Cl- current elicited by apical UTP: significantly enhanced

## OCc1ccccc1CN(Cc1ccnc(N2CCCC2)n1)c1ccc(F)cc1 [ARN4550, [2-[[4-Fluoro-N-[(2-pyrrolidin-1-ylpyrimidin-4-yl)methyl]anilino]methyl]phenyl]methanol]
ITPR1
  potentiation of UTP-elicited Ca2+ increase, ITPR1-only cells: always effective
TMEM16A
  transepithelial Cl- current elicited by apical UTP: significantly enhanced
